Results: patent US20190106460A1, “BINDING INHIBITORS OF THE BETA. TRANSDUCIN REPEAT-CONTAINING PROTEIN” (priority 2011, published 2019)
Like-named read-outs stand apart in the source and are kept apart here. Starred links: 1 amine or outer side, 2 acyl side, 3 side chain; linkers in the order of their positions; H or OH if unused. Non-standard residues stand in square brackets, D forms with d. Residues, ends and D or L forms follow the SMILES beside them. No end group written: not given here. *: point of attachment. Phe(4-NO2) = N[C@@H](Cc1ccc([N+](=O)[O-])cc1)C(=O)O; Benzenesulfonyl(4-OMe) = COc1ccc(S(=O)(=O)*)cc1; Phe(3-F) = N[C@@H](Cc1cccc(F)c1)C(=O)O; Phe(4-F) = N[C@@H](Cc1ccc(F)cc1)C(=O)O; 1Nal = N[C@@H](Cc1cccc2ccccc12)C(=O)O; Phe(2-F) = N[C@@H](Cc1ccccc1F)C(=O)O; 3Pal = N[C@@H](Cc1cccnc1)C(=O)O; pS = N[C@@H](COP(=O)(O)O)C(=O)O; X4 = O=S(=O)(c1ccc(Cl)cc1Cl)*; Suc = O=C(CCC(=O)[*:2])[*:1]; Tos = Cc1ccc(S(=O)(=O)*)cc1

Assays:
βTrCP = βTrCP (Homo sapiens, UniProt Q9Y297); assay: Fluorescence polarisation (FP) binding assay with fluorescein-tagged IκB peptide
Chain of βTrCP (Q9Y297 whole entry): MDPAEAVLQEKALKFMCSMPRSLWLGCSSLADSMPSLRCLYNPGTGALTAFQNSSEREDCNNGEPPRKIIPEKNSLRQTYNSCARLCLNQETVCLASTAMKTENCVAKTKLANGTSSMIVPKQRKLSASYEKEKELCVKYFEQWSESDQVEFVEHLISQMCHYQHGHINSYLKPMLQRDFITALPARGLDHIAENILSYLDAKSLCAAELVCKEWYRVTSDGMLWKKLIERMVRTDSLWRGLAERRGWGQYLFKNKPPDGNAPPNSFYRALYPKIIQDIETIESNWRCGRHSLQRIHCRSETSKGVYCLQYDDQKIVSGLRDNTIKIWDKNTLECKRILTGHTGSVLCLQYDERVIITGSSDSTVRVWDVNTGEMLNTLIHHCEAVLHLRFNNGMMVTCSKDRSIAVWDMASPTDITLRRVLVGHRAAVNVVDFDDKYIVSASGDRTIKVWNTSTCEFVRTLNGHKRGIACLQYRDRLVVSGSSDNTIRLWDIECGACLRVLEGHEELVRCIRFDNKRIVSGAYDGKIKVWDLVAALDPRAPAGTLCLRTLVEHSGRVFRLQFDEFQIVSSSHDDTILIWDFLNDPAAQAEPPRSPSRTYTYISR
Chain of βTrCP (P63208 whole entry partner): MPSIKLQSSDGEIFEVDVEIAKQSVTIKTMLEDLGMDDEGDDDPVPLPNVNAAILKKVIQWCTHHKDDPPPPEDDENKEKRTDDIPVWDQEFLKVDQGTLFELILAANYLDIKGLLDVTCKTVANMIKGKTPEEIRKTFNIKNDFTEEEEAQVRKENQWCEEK

Skp2 = Skp2 (Homo sapiens, UniProt Q13309); assay: Selectivity assay vs other E3s: Skp2; assay type: biochemical; details: for inhibition at 100 µM: value in brackets, read-out: % Inhibition Skp2 @ (100 μM); for inhibition at 10 µM: read-out: % Inhibition Skp2 @ 10 μM
Chain of Skp2 (Q13309 whole entry, species assumed): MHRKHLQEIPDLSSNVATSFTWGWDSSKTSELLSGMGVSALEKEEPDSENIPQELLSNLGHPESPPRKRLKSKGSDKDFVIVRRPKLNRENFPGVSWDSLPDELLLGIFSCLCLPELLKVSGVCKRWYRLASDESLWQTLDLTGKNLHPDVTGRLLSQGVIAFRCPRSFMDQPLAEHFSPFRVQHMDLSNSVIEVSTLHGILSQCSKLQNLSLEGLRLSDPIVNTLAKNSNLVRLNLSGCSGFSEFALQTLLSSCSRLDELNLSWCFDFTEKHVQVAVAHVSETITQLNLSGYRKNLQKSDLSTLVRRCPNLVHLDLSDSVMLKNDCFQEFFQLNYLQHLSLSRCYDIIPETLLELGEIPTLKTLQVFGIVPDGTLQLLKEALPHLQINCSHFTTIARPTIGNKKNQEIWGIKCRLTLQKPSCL
Chain of Skp2 (P63208 whole entry partner, species assumed): as the sequence (P63208 whole entry partner) above
Chain of Skp2 (Q13616 whole entry partner, species assumed): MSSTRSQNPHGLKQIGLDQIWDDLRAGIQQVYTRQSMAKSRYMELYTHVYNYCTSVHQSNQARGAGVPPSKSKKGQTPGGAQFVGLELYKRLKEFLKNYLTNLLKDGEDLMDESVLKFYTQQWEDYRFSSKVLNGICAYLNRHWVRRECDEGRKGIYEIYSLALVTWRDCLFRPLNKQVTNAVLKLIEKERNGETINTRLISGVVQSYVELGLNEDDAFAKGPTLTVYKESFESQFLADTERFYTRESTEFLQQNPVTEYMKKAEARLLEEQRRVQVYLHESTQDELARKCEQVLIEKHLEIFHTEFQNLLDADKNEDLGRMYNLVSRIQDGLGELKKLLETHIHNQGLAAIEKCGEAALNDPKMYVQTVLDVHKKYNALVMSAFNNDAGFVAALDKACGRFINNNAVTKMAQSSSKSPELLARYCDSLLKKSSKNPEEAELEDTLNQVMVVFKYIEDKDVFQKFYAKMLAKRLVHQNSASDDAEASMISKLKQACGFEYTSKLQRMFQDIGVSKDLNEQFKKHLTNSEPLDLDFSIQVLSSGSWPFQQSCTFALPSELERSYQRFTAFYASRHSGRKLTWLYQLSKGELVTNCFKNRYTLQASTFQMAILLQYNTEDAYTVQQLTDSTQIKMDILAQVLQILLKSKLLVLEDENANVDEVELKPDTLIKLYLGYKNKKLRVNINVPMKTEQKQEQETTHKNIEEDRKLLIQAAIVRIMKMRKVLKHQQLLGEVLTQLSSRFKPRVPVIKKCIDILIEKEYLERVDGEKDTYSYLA
Chain of Skp2 (P62877 whole entry partner, species assumed): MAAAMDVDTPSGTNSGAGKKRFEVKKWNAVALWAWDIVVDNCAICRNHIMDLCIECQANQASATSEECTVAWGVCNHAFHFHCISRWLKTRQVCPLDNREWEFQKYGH
Description: (§1) βTrCP Ubiquitination Assay and Selectivity Assays
(§2) Master mixes were prepared in a 50 mM Herpes buffer at pH 7.5, in 75 mM NaCl and 1 mM DTT without Mg or ATP and peptides were added to a final concentration of 100 μM. Reactions were incubated at room temperature for 30 minutes and then Mg/ATP was added to the mix. Reactions were further incubated for an additional 60 minutes and then stopped by adding SDS gel loading buffer and boiled for 5 minutes. Reactions were run on SDS-PAGE (10%) and transferred to nitrocellulose membranes and probed with HRP-Streptavidin.
(§3) Candidate compounds were tested for inhibition of Fbw7 and Skp2 as described above.

FBW7/Skp1 = FBW7/Skp1 (Homo sapiens, UniProt Q969H0); assay: Selectivity assay vs other E3s: Fbw7; assay type: biochemical; details: for inhibition at 100 µM: value in brackets, read-out: % Inhibition Fbw7 @ (100 μM); for inhibition at 10 µM: read-out: % Inhibition Fbw7 @ 10 μM
Chain of FBW7/Skp1 (Q969H0 whole entry, species assumed): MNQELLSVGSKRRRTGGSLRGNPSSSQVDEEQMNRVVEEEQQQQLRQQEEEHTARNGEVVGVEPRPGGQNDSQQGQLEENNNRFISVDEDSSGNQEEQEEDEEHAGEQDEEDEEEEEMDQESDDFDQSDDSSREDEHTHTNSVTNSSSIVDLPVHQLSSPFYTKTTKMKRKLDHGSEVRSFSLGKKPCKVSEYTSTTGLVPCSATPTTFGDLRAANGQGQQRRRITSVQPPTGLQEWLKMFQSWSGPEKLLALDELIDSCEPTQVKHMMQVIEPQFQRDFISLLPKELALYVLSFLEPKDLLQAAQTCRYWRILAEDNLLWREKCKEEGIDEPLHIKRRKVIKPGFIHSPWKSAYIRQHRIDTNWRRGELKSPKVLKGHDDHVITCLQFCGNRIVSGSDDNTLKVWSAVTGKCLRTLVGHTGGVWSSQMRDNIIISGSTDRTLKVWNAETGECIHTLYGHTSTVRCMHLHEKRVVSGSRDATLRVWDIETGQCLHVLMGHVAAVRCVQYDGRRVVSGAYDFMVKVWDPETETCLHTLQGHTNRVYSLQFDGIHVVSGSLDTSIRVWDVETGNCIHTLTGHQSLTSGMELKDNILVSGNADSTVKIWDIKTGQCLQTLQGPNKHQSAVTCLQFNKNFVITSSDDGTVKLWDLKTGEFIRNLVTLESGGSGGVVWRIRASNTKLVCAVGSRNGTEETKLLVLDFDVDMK
Chain of FBW7/Skp1 (P63208 whole entry partner, species assumed): as the sequence (P63208 whole entry partner) above
Chain of FBW7/Skp1 (Q13616 whole entry partner, species assumed): as the sequence (Q13616 whole entry partner, species assumed) above
Chain of FBW7/Skp1 (P62877 whole entry partner, species assumed): as the sequence (P62877 whole entry partner, species assumed) above
Description: as §1, §2
FBW7 selectivity assays were performed in the same manner except using FBW7/Skp1 as E3 component and cyclin E as the substrate. Blots were probed using anti-cyclin E antibody.
as §3

[1] = Table 11, with spread, read-out: FP IC50/μM
[2] = Tables 1, 3, 7, 8, 10 nM fluorescein-tagged IκB peptide, read-out: FP Assay IC50/μM

Compound	IC50 (βTrCP; [2])	other results
COc1ccc(S(=O)(=O)N[C@@H](CC(=O)O)C(=O)N[C@@H](CCC(=O)O)C(=O)NCC(=O)N[C@@H](Cc2cccc(F)c2)C(=O)N[C@@H](Cc2c[nH]c3ccccc23)C(=O)N[C@@H](CCC(=O)O)C(N)=O)cc1 [4-(MeO)-PhSO2-DEGF(3F)WE-NH2] ({Benzenesulfonyl(4-OMe)}-DEG[Phe(3-F)]WE-NH2)	–	IC50 (βTrCP; [1]): 0.027 ± 0.002 µM; inhibition at 100 µM (Skp2): 3%; inhibition at 10 µM (Skp2): 15%; inhibition at 100 µM (FBW7/Skp1): 8%; inhibition at 10 µM (FBW7/Skp1): 0%
COc1ccc(S(=O)(=O)N[C@H](CC(=O)O)C(=O)N[C@@H](CCC(=O)O)C(=O)NCC(=O)N[C@@H](Cc2cccc(F)c2)C(=O)N[C@@H](Cc2c[nH]c3ccccc23)C(=O)N[C@@H](CCC(=O)O)C(N)=O)cc1 [4-(MeO)-PhSO2-dEGF(3F)WE-NH2] ({Benzenesulfonyl(4-OMe)}-[dD]EG[Phe(3-F)]WE-NH2)	–	IC50 (βTrCP; [1]): 0.017 ± 0.002 µM; inhibition at 100 µM (Skp2): 12%; inhibition at 10 µM (Skp2): 7%; inhibition at 100 µM (FBW7/Skp1): 18%; inhibition at 10 µM (FBW7/Skp1): 0%
NC(=O)[C@H](Cc1cccc(F)c1)NC(=O)[C@H](Cc1ccccc1F)NC(=O)CNC(=O)[C@H](CCC(=O)O)NC(=O)CCC(=O)O [Suc-EG-F(2F)-F(3F)-NH2] (Suc-EG[Phe(2-F)][Phe(3-F)]-NH2)	> 100 µM	–
NC(=O)CC[C@H](NC(=O)[C@H](Cc1cccc2ccccc12)NC(=O)[C@H](Cc1cccc(F)c1)NC(=O)CNC(=O)[C@H](CCC(=O)O)NC(=O)CCC(=O)O)C(N)=O [Suc-EG-F(3F)-1Nal-Q-NH2] (Suc-EG[Phe(3-F)][1Nal]Q-NH2)	7.22 µM	–
NC(=O)[C@H](Cc1cccnc1)NC(=O)[C@H](Cc1cccc(F)c1)NC(=O)CNC(=O)[C@H](CCC(=O)O)NC(=O)CCC(=O)O [Suc-EG-F(3F)-3Pal-NH2] (Suc-EG[Phe(3-F)][3Pal]-NH2)	70 µM	–
NC(=O)[C@H](Cc1ccc([N+](=O)[O-])cc1)NC(=O)[C@H](Cc1cccc(F)c1)NC(=O)CNC(=O)[C@H](CCC(=O)O)NC(=O)CCC(=O)O [Suc-EG-F(3F)-F(4NO2)-NH2] (Suc-EG[Phe(3-F)][Phe(4-NO2)]-NH2)	> 100 µM	–
COc1ccc(C[C@H](NC(=O)[C@H](Cc2cccc(F)c2)NC(=O)CNC(=O)[C@H](CCC(=O)O)NC(=O)CCC(=O)O)C(=O)N[C@@H](CCC(=O)O)C(N)=O)cc1 [Suc-EG-F(3F)-Y(Me)-E-NH2] (Suc-EG[Phe(3-F)]Y(Me)E-NH2)	1.4 µM	–
NC(=O)[C@H](Cc1cccc2ccccc12)NC(=O)[C@H](Cc1ccc([N+](=O)[O-])cc1)NC(=O)CNC(=O)[C@H](CCC(=O)O)NC(=O)CCC(=O)O [Suc-EG-F(4NO2)-1Nal-NH2] (Suc-EG[Phe(4-NO2)][1Nal]-NH2)	14 µM	–
NC(=O)[C@H](Cc1cccc(F)c1)NC(=O)[C@H](Cc1ccccc1)NC(=O)CNC(=O)[C@H](CCC(=O)O)NC(=O)CCC(=O)O [Suc-EGF-F(3F)-NH2] (Suc-EGF[Phe(3-F)]-NH2)	> 100 µM	–
NC(=O)[C@H](Cc1ccc(F)cc1)NC(=O)[C@H](Cc1ccccc1)NC(=O)CNC(=O)[C@H](CCC(=O)O)NC(=O)CCC(=O)O [Suc-EGF-F(4F)-NH2] (Suc-EGF[Phe(4-F)]-NH2)	> 100 µM	–
NC(=O)[C@H](Cc1ccc([N+](=O)[O-])cc1)NC(=O)[C@H](Cc1ccccc1)NC(=O)CNC(=O)[C@H](CCC(=O)O)NC(=O)CCC(=O)O [Suc-EGF-F(4NO2)-NH2] (Suc-EGF[Phe(4-NO2)]-NH2)	> 100 µM	–
COC(=O)CC[C@H](NC(=O)[C@H](Cc1ccc(OC)cc1)NC(=O)[C@H](Cc1ccccc1)NC(=O)CNC(=O)[C@H](CCC(=O)O)NC(=O)CCC(=O)O)C(N)=O [Suc-EGF-Y(Me)-E(OMe)-NH2] (Suc-EGFY(Me)E(OMe)-NH2)	71 µM	–
CC[C@H](C)[C@H](NC(=O)CNC(=O)[C@H](CCC(=O)O)NC(=O)CCC(=O)O)C(=O)N[C@@H](Cc1cccc2ccccc12)C(=O)N[C@@H](CCC(=O)O)C(N)=O [Suc-EGI-1Nal-E-NH2] (Suc-EGI[1Nal]E-NH2)	15.1 µM	–
CC[C@H](C)[C@H](NC(=O)CNC(=O)[C@H](CCC(=O)O)NC(=O)CCC(=O)O)C(=O)N[C@@H](Cc1ccccc1)C(=O)N[C@@H](CCC(=O)O)C(N)=O [Suc-EGIFE-NH2] (Suc-EGIFE-NH2)	> 100 µM	–
NC(=O)[C@H](Cc1cccc(F)c1)NC(=O)[C@H](Cc1ccc(O)cc1)NC(=O)CNC(=O)[C@H](CCC(=O)O)NC(=O)CCC(=O)O [Suc-EGY-F(3F)-NH2] (Suc-EGY[Phe(3-F)]-NH2)	91 µM	–
NC(=O)[C@H](Cc1ccc(F)cc1)NC(=O)[C@H](Cc1ccc(O)cc1)NC(=O)CNC(=O)[C@H](CCC(=O)O)NC(=O)CCC(=O)O [Suc-EGY-F(4F)-NH2] (Suc-EGY[Phe(4-F)]-NH2)	71 µM	–
NC(=O)[C@H](Cc1ccc([N+](=O)[O-])cc1)NC(=O)[C@H](Cc1ccc(O)cc1)NC(=O)CNC(=O)[C@H](CCC(=O)O)NC(=O)CCC(=O)O [Suc-EGY-F(4NO2)-NH2] (Suc-EGY[Phe(4-NO2)]-NH2)	91 µM	–
NC(=O)CC[C@H](NC(=O)CCC(=O)O)C(=O)NCC(=O)N[C@@H](Cc1ccccc1)C(=O)N[C@@H](Cc1ccccc1)C(=O)N[C@@H](CCC(=O)O)C(N)=O [Suc-QGFFE-NH2]	10 µM	–
NC(=O)CC[C@H](NC(=O)CCC(=O)O)C(=O)NCC(=O)N[C@@H](Cc1ccc(O)cc1)C(=O)N[C@@H](Cc1ccccc1)C(=O)N[C@@H](CCC(=O)O)C(N)=O [Suc-QGYFE-NH2]	10.7 µM	–

Compound	IC50 (βTrCP; [2])	other results
Cc1ccc(S(=O)(=O)N[C@@H](CC(=O)O)C(=O)N[C@@H](CCC(=O)O)C(=O)NCC(=O)N[C@@H](Cc2cccc(F)c2)C(=O)N[C@@H](Cc2c[nH]c3ccccc23)C(=O)N[C@@H](CCC(=O)O)C(N)=O)cc1 [Ts-DEGF(3F)WE-NH2] (Tos-DEG[Phe(3-F)]WE-NH2)	–	IC50 (βTrCP; [1]): 0.018 ± 0.002 µM; inhibition at 100 µM (Skp2): 7%; inhibition at 10 µM (Skp2): 0%; inhibition at 100 µM (FBW7/Skp1): 8%; inhibition at 10 µM (FBW7/Skp1): 0%
Cc1ccc(S(=O)(=O)N[C@H](CC(=O)O)C(=O)N[C@@H](CCC(=O)O)C(=O)NCC(=O)N[C@@H](Cc2cccc(F)c2)C(=O)N[C@@H](Cc2c[nH]c3ccccc23)C(=O)N[C@@H](CCC(=O)O)C(N)=O)cc1 [Ts-dEGF(3F)WE-NH2] (Tos-[dD]EG[Phe(3-F)]WE-NH2)	–	IC50 (βTrCP; [1]): 0.029 ± 0.005 µM; inhibition at 100 µM (Skp2): 25%; inhibition at 10 µM (Skp2): 19%; inhibition at 100 µM (FBW7/Skp1): 0%; inhibition at 10 µM (FBW7/Skp1): 9%
NC(=O)[C@H](CCC(=O)O)NC(=O)[C@H](Cc1c[nH]c2ccccc12)NC(=O)[C@H](Cc1cccc(F)c1)NC(=O)CNC(=O)[C@H](CCC(=O)O)NC(=O)[C@@H](CC(=O)O)NS(=O)(=O)c1ccc(Cl)cc1Cl [UBP048, 2,4-(Cl)2-PhSO2-dEGF(3F)WE-NH2] (X4-[dD]EG[Phe(3-F)]WE-NH2)	–	Ki (βTrCP; FP dose-response): 27 nM
CC[C@H](C)[C@H](NC(=O)CNC(=O)[C@H](COP(=O)(O)O)NC(=O)[C@H](CC(=O)O)NC(=O)[C@@H](N)C(C)C)C(=O)N[C@@H](Cc1c[nH]cn1)C(=O)N[C@@H](CO)C(N)=O [VD-pS-GIHS-NH2] (H-VD[pS]GIHS-NH2)	> 100 µM	–
CC[C@H](C)[C@H](NC(=O)CNC(=O)[C@H](C)NC(=O)[C@H](N)CC(=O)O)C(=O)N[C@@H](Cc1ccccc1)C(=O)N[C@@H](CC(=O)O)C(N)=O [dAGIFD-NH2] (H-[dD]AGIFD-NH2)	> 100 µM	–
CC[C@H](C)[C@H](NC(=O)CNC(=O)[C@H](C)NC(=O)[C@H](N)CC(=O)O)C(=O)N[C@@H](Cc1ccccc1)C(=O)N[C@@H](CCCNC(=N)N)C(N)=O [dAGIFR-NH2] (H-[dD]AGIFR-NH2)	> 100 µM	–
CC[C@H](C)[C@H](NC(=O)CNC(=O)[C@H](CCC(=O)O)NC(=O)[C@H](N)CC(=O)O)C(=O)N[C@@H](Cc1ccccc1)C(=O)N[C@@H](CC(=O)O)C(N)=O [dEGIFD-NH2] (H-[dD]EGIFD-NH2)	> 100 µM	–
CC[C@H](C)[C@H](NC(=O)CNC(=O)[C@H](CC(N)=O)NC(=O)[C@H](N)CC(=O)O)C(=O)N[C@@H](Cc1ccccc1)C(=O)N[C@@H](CCCNC(=N)N)C(N)=O [dNGIFR-NH2] (H-[dD]NGIFR-NH2)	> 100 µM	–
ADAGIHS-NH2 [ADAGIHS-NH2]	> 100 µM	–
DAGFFE-NH2 [DAGFFE-NH2]	> 100 µM	–
DAGIFH-NH2 [DAGIFH-NH2]	> 100 µM	–
DAGIHS-NH2 [DAGIHS-NH2]	> 100 µM	–
DAGNFE-NH2 [DAGNFE-NH2]	> 100 µM	–
DDASGIHS-NH2 [DDASGIHS-NH2]	> 100 µM	–
EAGIFE-NH2 [EAGIFE-NH2]	> 100 µM	–
GDAGIHS-NH2 [GDAGIHS-NH2]	> 100 µM	–
H-DEGFFE-NH2 [DEGFFE-NH2]	–	IC50 (βTrCP; FP Assay IC50/μM, Tables 1, 3, 7, 8, 10 nM fluorescein-tagged IκB peptide): 43.6 µM
LDASGIHS-NH2 [LDASGIHS-NH2]	> 100 µM	–
VDAGIHS-NH2 [VDAGIHS-NH2]	> 100 µM	–
